Data set [1] deals with SARS-CoV-2 spike protein pseudovirus. Kind of data set: organism not typed. The class given is cell-based.
For a further data set, the system named is 293T-ACE2 cells. The note with it: for % viability (Table S3): 10 µM.
The subject of the next data set is VSV-G pseudovirus. Kind of data set: microbe, parasite or virus in culture. The note with it: for activity at 10 µM: Pseudovirus, 293T/ACE2, read-out: % Infectivity of VSV-G pv. It is filed as cell-based, vesicular stomatitis virus.
For data set [2] the following is noted: values for the salts; ref chemical supplier datasheets; cited from earlier work.
For data set [3] the following is noted: predictions for the uncharged form; ref https://go.drugbank.com; cited from earlier work.
The next data set in a line: in vitro. The note with it: human.
The next data set relates to MERS-CoV-S pseudovirus. It is filed as cell-based.
In another data set the test system is SARS-CoV-1-S pseudovirus. It is filed as cell-based.
Where [4] appears, read: 10 µM; read-out: % infectivity (Table S3, kite-shaped molecules in order of inhibition).
[5] abbreviates: 293T/ACE2, 48 h, read-out: % Infectivity of SARS-2-Spike pv.
Where [6] appears, read: 293T/ACE2, read-out: IC50 of SARS-CoV-2-S pseudovirus infectivity.

The text below walks through data of publication PMC8619434 (Viruses, 2021).

pIC50: −log10 of the molar value. In brackets after ≈: the same amount, converted by molar mass. Where a name gives a salt, the structure may show the parent alone. Read-outs that look alike come from different tables or passages of the source.

Regarding `CCOC(=O)C1=C(COCCN)NC(C)=C(C(=O)OC)C1c1ccccc1Cl` (stereo not drawn) [amlodipine besylate], in data set [1], the “% Infectivity of SARS-2-Spike pv” value came out at 19%. In addition, the “% Viability of SARS-2-Spike pv” value in the data set on 293T-ACE2 cells (human) was determined as 116%. In addition, the “% Infectivity of VSV-G pv” value with VSV-G pseudovirus is reported as 100%.
Take `Cc1c(-c2ccc(O)cc2)n(Cc2ccc(OCCN3CCCCCC3)cc2)c2ccc(O)cc12.Cl` [bazedoxifene Hcl]: the “% Infectivity of SARS-2-Spike pv” value in data set [1] worked out at 3%. Moreover, the “% Viability of SARS-2-Spike pv” value with 293T-ACE2 cells came to 88%. Further, in the data set with VSV-G pseudovirus, the “% Infectivity of VSV-G pv” value is 13%.
Consider `Cc1nc2c([nH]1)-c1ccccc1N(C(=O)c1ccc(NC(=O)c3ccccc3-c3ccccc3)cc1)CC2.Cl` [conivaptan hcl], for which the activity in data set [1] (setting [4]) turned out to be 52%. In addition, in the data set with 293T-ACE2 cells, the “% viability (Table S3)” value stood at 102%.
As for heparin sodium, the “% Infectivity of SARS-2-Spike pv” value in data set [1] is 88%. The “% Viability of SARS-2-Spike pv” value with 293T-ACE2 cells is on record as 98%.
Regarding `CN1CC2c3ccccc3Oc3ccc(Cl)cc3C2C1` (stereo not drawn) [asenapine], in data set [2], the water solubility b is 9 mM. In addition, the “combination effect with hydroxychloroquine on SARS-CoV-2 pseudovirus infectivity” value in data set [1] was “additive effects”. Moreover, the activity at 10 µM in data set [1] (setting [5]) was 4%; in the data set with VSV-G pseudovirus, 71%. In addition, the water solubility a in data set [3] is 0.078 mM (≈ 22.3 µg/mL). Further, in the data set “in vitro” (% Viability of SARS-2-Spike pv), the viability (commonly a read-out of living cells in per cent, often relative to untreated cells) was determined as 92%.
Regarding `CCOC(=O)C1OC1C(=O)NC(CC(C)C)C(=O)NCCC(C)C` (stereo not drawn) [E64d], the activity at 10 µM in data set [1] (setting [5]) was 9%; with VSV-G pseudovirus, 105%. The “inhibition of MERS-CoV-S pseudovirus infection” value in the data set on MERS-CoV-S pseudovirus was “inhibited”. For the same compound, the viability in the data set “in vitro” (% Viability of SARS-2-Spike pv) is 95%. In the data set on SARS-CoV-1-S pseudovirus, the “inhibition of SARS-CoV-1-S pseudovirus infection” value is recorded as “inhibited”.
Consider `Cc1ccc(NC(=O)c2ccc(CN3CCN(C)CC3)cc2)cc1Nc1nccc(-c2cccnc2)n1` [imatinib mesylate, imatinib], for which the “% Infectivity of SARS-2-Spike pv” value in data set [1] turned out to be 1%. Further, in the data set with 293T-ACE2 cells (human), the “% Viability of SARS-2-Spike pv” value is recorded as 22%.
As for `C[C@@H]1CCO[C@H]2Cn3cc(C(=O)NCc4ccc(F)cc4F)c(=O)c(O)c3C(=O)N12` [S/GSK1349572], in data set [1] (setting [4]), the activity amounted to 16.2%. In addition, the “% viability (Table S3)” value with 293T-ACE2 cells amounted to 94%.
Taken in the same sequence, the figures for `Cc1cncc(CN2CCC(=C3c4ccc(Cl)cc4CCc4cccnc43)CC2)c1.O=C(O)/C=C/C(=O)O` [Rupatadine Fumarate] were 38% and 74%.
Consider `O=C(O[C@H]1CN2CCC1CC2)N1CCc2ccccc2[C@@H]1c1ccccc1` [solifenacin succinate], for which the activity at 10 µM in data set [1] (setting [5]) was 12%; in the data set with VSV-G pseudovirus, 86%. In the data set “in vitro”, the viability stood at 99%.
`Cc1ccc(NC(=O)c2ccc(CN3CCN(C)CC3)cc2)cc1Nc1nccc(-c2cccnc2)n1` [imatinib]: the “% Infectivity of SARS-2-Spike pv” value in data set [1] came to 81%. For the same compound, the “% Viability of SARS-2-Spike pv” value with 293T-ACE2 cells (human) was found to be 103%.
`CN(C)CCCN1c2ccccc2CCc2ccccc21` [imipramine]: the results for the activity at 10 µM (in data set [1] (setting [5]); with VSV-G pseudovirus) were 16% and 84%, respectively. Further, in the data set “in vitro” (% Viability of SARS-2-Spike pv), the viability amounted to 99%.
In the case of `CC[C@H]1OC(=O)[C@H](C)[C@@H](O[C@H]2C[C@@](C)(OC)[C@@H](O)[C@H](C)O2)[C@H](C)[C@@H](O[C@@H]2O[C@H](C)C[C@H](N(C)C)[C@H]2O)[C@](C)(O)C[C@@H](C)CN(C)[C@H](C)[C@@H](O)[C@]1(C)O` [azithromycin], in data set [1], the “% Infectivity of SARS-2-Spike pv” value stood at 3%. Also, in data set [1] (setting [6]), the pIC50 (commonly −log10 of the IC50, conventionally taken in molar units) is 6.11. Also, the “% Viability of SARS-2-Spike pv” value in the data set with 293T-ACE2 cells (human) was found to be 100%. Moreover, in the data set with VSV-G pseudovirus, the “% Infectivity of VSV-G pv” value was 93%.
For `CN1CCN(c2nc(C3=C(c4c[nH]c5ccccc45)C(=O)NC3=O)c3ccccc3n2)CC1` [sotrastaurin], the figures for the activity at 10 µM (in data set [1] (setting [5]); with VSV-G pseudovirus) were 8% and 76%, respectively. Further, in data set [1] (setting [6]), the pIC50 was 5.16. Moreover, in the data set on MERS-CoV-S pseudovirus, the “inhibition of MERS-CoV-S pseudovirus infection” value is reported as “non-significant inhibition”. For the same compound, in the data set “in vitro” (% Viability of SARS-2-Spike pv), the viability was 89%. Besides, the “inhibition of SARS-CoV-1-S pseudovirus infection” value in the data set on SARS-CoV-1-S pseudovirus was “significant inhibition”.
For `CC1CCC2(OC1)OC1CC3C4CCC5CC(OC6OC(CO)C(O)C(O)C6OC6OC(CO)C(O)C(O)C6O)CCC5(C)C4CCC3(C)C1C2C` (stereo not drawn) [Timosaponin A3], the activity at 10 µM in data set [1] (setting [5]) was determined as 5%; with VSV-G pseudovirus, 85%. Besides, the viability in the data set “in vitro” (% Viability of SARS-2-Spike pv) turned out to be 55%.
The matching figures for `CC(C)COc1ccc(CNC(=O)N(Cc2ccc(F)cc2)C2CCN(C)CC2)cc1` [pimavanserin]: 3%, 72% and 70%.
Turning to `Cc1cc(Nc2cc(CN3CCOCC3)c3nc(C)c(Cc4ccc(Cl)cc4F)n3n2)n[nH]1` [LY2784544], the figures for the activity at 10 µM (in data set [1] (setting [5]); in the data set on VSV-G pseudovirus) were 2% and 1%, respectively. Also, the viability in the data set “in vitro” (% Viability of SARS-2-Spike pv) was found to be 76%.
Taken in the same sequence, the figures for `CC(CN1c2ccccc2Sc2ccccc21)N(C)C` (stereo not drawn) [promethazine HCl] were 11%, 107% and 99%.
`CN1CCN(CCCN2c3ccccc3Sc3ccc(C(F)(F)F)cc32)CC1` [trifluoperazine 2HCl]: the activity at 10 µM in data set [1] (setting [5]) came out at 5%; in the data set with VSV-G pseudovirus, 80%. Moreover, the pIC50 in data set [1] (setting [6]) was 5.48. Also, the “inhibition of MERS-CoV-S pseudovirus infection” value in the data set with MERS-CoV-S pseudovirus is on record as “non-significant inhibition”. In addition, the viability in the data set “in vitro” (% Viability of SARS-2-Spike pv) came out at 83%. In addition, the “inhibition of SARS-CoV-1-S pseudovirus infection” value with SARS-CoV-1-S pseudovirus is on record as “significant inhibition”.
In the case of `CN1CCC(OC(c2ccccc2)c2ccccc2)CC1` [diphenylpyraline HCl], the activity at 10 µM in data set [1] (setting [5]) was 15%; with VSV-G pseudovirus, 108%. In “in vitro” (% Viability of SARS-2-Spike pv), the viability was 106%.
The matching figures for `CN1CCC(=C2c3ccccc3C=Cc3ccccc32)CC1` [cyproheptadine HCl]: 17%, 92% and 94%.
The matching figures for `CN1[C@@H]2CC[C@H]1C[C@@H](OC(c1ccccc1)c1ccccc1)C2` [benztropine mesylate]: 10%, 93% and 96%.
In the case of `CCc1cnn2c(NCc3ccc[n+]([O-])c3)cc(N3CCCC[C@H]3CCO)nc12` [dinaciclib], the activity at 10 µM in data set [1] (setting [5]) worked out at 0%; in the data set on VSV-G pseudovirus it was 1%. Also, the viability in “in vitro” (% Viability of SARS-2-Spike pv) is 55%.
Turning to `CC[C@H]1OC(=O)[C@H](C)[C@@H](O[C@H]2C[C@@](C)(OC)[C@@H](O)[C@H](C)O2)[C@H](C)[C@@H](O[C@@H]2O[C@H](C)C[C@H](N(C)C)[C@H]2O)[C@](C)(O)C[C@@H](C)CN(C)[C@H](C)[C@@H](O)[C@]1(C)O` [azithromycin dihydrate], the activity at 10 µM came to 4% in data set [1] (setting [5]) and 100% in the data set on VSV-G pseudovirus. The viability in the data set “in vitro” (% Viability of SARS-2-Spike pv) worked out at 94%.
Take `COc1cc2c(Oc3ccc4[nH]c(C)cc4c3F)ncnc2cc1OCCCN1CCCC1` [cediranib (AZD217), cediranib]: the activity at 10 µM amounted to 5% in data set [1] (setting [5]) and 42% in the data set on VSV-G pseudovirus. The viability in “in vitro” (% Viability of SARS-2-Spike pv) came to 85%.
`OCCOCCN1CCN(C2=Nc3ccccc3Sc3ccccc32)CC1` [quetiapine]: the activity in data set [1] (read-out: % infectivity (Table S3, kite-shaped molecules in order of inhibition); 10 µM) is 113%. Further, the “% viability (Table S3)” value with 293T-ACE2 cells (human) worked out at 101%.
As to `O=C(c1ccc(OCCN2CCCCC2)cc1)c1c(-c2ccc(O)cc2)sc2cc(O)ccc12` [raloxifene HCl], the values for the activity at 10 µM (in data set [1] (setting [5]); in the data set with VSV-G pseudovirus) were 5% and 65%, respectively. For the same compound, the pIC50 in data set [1] (setting [6]) was 5.24. Moreover, in “in vitro” (% Viability of SARS-2-Spike pv), the viability is 92%.
